Results: the NIST ThermoML archive (doi:10.1016/j.jct.2018.12.044)
Numbers after ± are expanded uncertainties.

Details: Crystal; DTA

Normal melting temperature: 194.36 ± 6 °C
SMILES: CC[C@H]1OC(=O)[C@H](C)[C@@H](O[C@H]2C[C@@](C)(OC)[C@@H](O)[C@H](C)O2)[C@H](C)[C@@H](O[C@@H]2O[C@H](C)C[C@H](N(C)C)[C@H]2O)[C@](C)(O)C[C@@H](C)[C@@H]2N[C@@H](COCCOC)O[C@H]([C@H]2C)[C@]1(C)O [Dirithromycin]
